Source: US20220064127A1, “PLATELET AGGREGATION INHIBITOR, PREPARATION AND USES THEREOF” (SHENYANG HINEWY PHARMACEUTICAL TECHNOLOGY CO., LTD., priority 2020, published 2022)

tested on: ADP-Induced Platelet Aggregation; experiment: Inhibition of ADP-induced platelet aggregation in rabbit platelet-rich plasma (microplate method); assay type: cell-based; conditions: Oryctolagus cuniculus, Platelet; 30 μM, rabbit PRP, inducer ADP; read-out: Inhibition rate of target compounds on platelet aggregation at 30 μM
Description: Example 62 Investigation on Inhibition of ADP-Induced Platelet Aggregation in Rabbit
A blood sample was collected from ear vein of a healthy male rabbit, added with 3.8% sodium citrate for anticoagulation and then centrifuged at 800 r/min for 10 min to prepare platelet-rich plasma (PRP) and at 3,000 r/min for 10 min to prepare platelet-poor plasma (PPP). The investigation on the plasma should be performed within 0.5-3 h after the preparation.
2. Determination of Platelet Aggregation by Microplate Method
The drugs to be tested were weighed and added with an appropriate amount of DMSO to prepare a series of 10 mM stock solutions, which were respectively diluted to prepare 10× stock solutions with normal saline for further use.
Several wells of a microplate were selected as test wells, which were added with 135 μL of PRP and then respectively added with 15 μL of the 10× stock solutions. A well in which 135 μL of PRP and 15 μL of normal saline were added was used as the vehicle control, and a well in which 135 μL of PPP and 15 μL of normal saline were added was used as the blank control. Duplicate wells were set for each test well. The plate was shaken, incubated at 37° C. for 5 min, and then measured for A0 at 655 nm. Subsequently, the microplate was added with 15 μL of an inducer […] (ADP) working solution (25 μmol/L) in each well, incubated at 37° C. under shaking and measured at 655 nm for A1, where the incubation time was determined according to the time in the pre-experiment when the maximum aggregation appeared. The platelet aggregation rate (AR) and platelet aggregation inhibition rate (AIR) were calculated according to the following formulas:
AR=(1−ARtest sample/ARcontrol)

| SMILES | inhibition at 30 µM |
| --- | --- |
| CCOC(=O)c1c(C)nc(-c2ccccc2)n1OC [LY-25, ethyl 4-methyl-2-phenyl-1-methoxy-1H-imidazole-5-carboxylate] | 24.1% |
| CCOC(=O)c1c(C)nc(-c2cccc(C#N)c2)n1OCC(N)=O [LY-26h, ethyl 1-(2-amino-2-oxoethoxy)-2-(3-cyanophenyl)-4-methyl-1H-imidazole-5-carboxylate] | 18.9% |
| CCOC(=O)c1c(C)nc(-c2cccc(C#N)c2)n1OCCC(=O)O [LY-26i, 3-{[2-(3-cyanophenyl)-5-(ethoxycarbonyl)-4-methyl-1H-imidazol-1-yl]oxy}propionic acid] | 24.4% |

same assay, conditions: Oryctolagus cuniculus, Platelet; rabbit PRP, inducer ADP, absorbance 655 nm; read-out: IC50 (Mean ± SE), ADP-induced platelet aggregation

| SMILES | IC50 |
| --- | --- |
| CCOC(=O)c1c(C)nc(-c2ccc(OCc3ccccc3)c(C#N)c2)n1O [LY-7b, ethyl 2-(3-cyano-4-benzyloxy)phenyl-1-hydroxy-4-methyl-1H-imidazole-5-carboxylate] | 19 ± 0.317 µM |
| CCOC(=O)c1c(C)nc(-c2ccc(OCC(C)C)c(C#N)c2)n1OC(C)=O [LY-8a, ethyl 1-acetoxy-2-(3-cyano-4-isobutoxyphenyl)-4-methyl-1H-imidazole-5-carboxylate] | 5.214 ± 0.0152 µM |
| CCOC(=O)c1c(C)nc(-c2ccc(O)c(C#N)c2)n1O [LY-8b, ethyl 2-(3-cyano-4-hydroxyphenyl)-1-hydroxy-4-methyl-1H-imidazole-5-carboxylate] | 18.3 ± 1.03 µM |
| CCOC(=O)c1c(C)nc(-c2cccc(C#N)c2)n1O [LY-10, ethyl 2-(3-cyanophenyl)-1-hydroxy-4-methyl-1H-imidazole-5-carboxylate] | 17.6 ± 0.952 µM |
| CCOC(=O)c1c(C)nc(-c2cccc(-c3nnn[nH]3)c2)n1O [LY-13, ethyl 2-[3-(1H-tetrazol-5-yl)phenyl]-1-hydroxy-4-methyl-1H-imidazole-5-carboxylate] | 21.9 ± 0.865 µM |
| CCOC(=O)c1c(C)nc(-c2cccc(-c3noc(=O)[nH]3)c2)n1O [LY-15, ethyl 1-hydroxy-4-methyl-2-[3-(5-oxo-4,5-dihydro-1,2,4-oxadiazol-3-yl)phenyl]-1H-imidazole-5-carboxylate] | 22.1 ± 0.299 µM |
| CCOC(=O)c1c(-c2ccccc2)nc(-c2cccc(C#N)c2)n1O [LY-16, ethyl 2-(3-cyanophenyl)-1-hydroxy-4-phenyl-1H-imidazole-5-carboxylate] | 19.87 ± 0.126 µM |
| CCOC(=O)c1c(C)nc(-c2ccccc2C#N)n1OC [LY-19, ethyl 4-methyl-2-(2-cyanophenyl)-1-methoxy-1H-imidazole-5-carboxylate] | 14.86 ± 0.0568 µM |
| CCOC(=O)c1c(C)nc(-c2ccc(C#N)cc2)n1OC [LY-22, ethyl 4-methyl-2-(4-cyanophenyl)-1-methoxy-1H-imidazole-5-carboxylate] | 13.4 ± 1.03 µM |
| CCOC(=O)c1c(C)nc(-c2cccc(C#N)c2)n1OCC [LY-26b, ethyl 2-(3-cyanophenyl)-1-ethoxy-4-methyl-1H-imidazole-5-carboxylate] | 16.5 ± 1.07 µM |
| CCOC(=O)c1c(C)nc(-c2cccc(C#N)c2)n1OCCCO [LY-26f, ethyl 2-(3-cyanophenyl)-1-(3-hydroxypropoxy)-4-methyl-1H-imidazole-5-carboxylate] | 11.4 ± 0.213 µM |
| CCOC(=O)c1c(C)nc(-c2cccc(C#N)c2)n1OCc1cccc(F)c1 [LY-26m, ethyl 2-(3-cyanophenyl)-1-[(3-fluorobenzyl)oxy]-4-methyl-1H-imidazole-5-carboxylate] | 22.4 ± 1.36 µM |
| CCOC(=O)c1c(C)nc(-c2cccc(C#N)c2)n1OCc1cccc(Cl)c1 [LY-26p, ethyl 1-[(3-chlorobenzyl)oxy]-2-(3-cyanophenyl)-4-methyl-1H-imidazole-5-carboxylate] | 19.4 ± 0.355 µM |
| CCOC(=O)c1c(C)nc(-c2cccc(C#N)c2)n1OCc1ccc(Br)cc1 [LY-26r, ethyl 1-[(4-bromobenzyl)oxy]-2-(3-cyanophenyl)-4-methyl-1H-imidazole-5-carboxylate] | 24.6 ± 0.895 µM |
| CCOC(=O)c1c(C)nc(-c2cccc(C#N)c2)n1OCc1ccc(C(=O)OC)cc1 [LY-26u, ethyl 2-(3-cyanophenyl)-1-{[4-(methoxycarbonyl)benzyl]oxy}-4-methyl-1H-imidazole-5-carboxylate] | 9.47 ± 0.856 µM |

Now from value to compound:

| IC50 | SMILES |
| --- | --- |
| 9.13 ± 0.346 µM | CCOC(=O)c1c(C)nc(-c2cccc(C#N)c2)n1OC [LY-26a, ethyl 2-(3-cyanophenyl)-1-methoxy-4-methyl-1H-imidazole-5-carboxylate] |
| 8.71 ± 0.242 µM | CCOC(=O)c1c(C)nc(-c2cccc(C#N)c2)n1OCc1ccccc1Cl [LY-26o, ethyl 1-[(2-chlorobenzyl)oxy]-2-(3-cyanophenyl)-4-methyl-1H-imidazole-5-carboxylate] |
| 7.865 ± 0.0365 µM | Cc1nc(-c2cccc(C#N)c2)n(O)c1C(=O)O [LY-11, 2-(3-cyanophenyl)-1-hydroxy-4-methyl-1H-imidazole-5-carboxylic acid] |
| 6.83 ± 0.0856 µM | CCOC(=O)c1c(C)nc(-c2cccc(C#N)c2)n1OCc1ccc(OC)cc1 [LY-26t, ethyl 2-(3-cyanophenyl)-1-[(4-methoxybenzyl)oxy]-4-methyl-1H-imidazole-5-carboxylate] |
| 6.83 ± 0.265 µM | CCOC(=O)c1c(C)nc(-c2cccc(C#N)c2)n1OCc1ccc(Cl)cc1 [LY-26q, ethyl 1-[(4-chlorobenzyl)oxy]-2-(3-cyanophenyl)-4-methyl-1H-imidazole-5-carboxylate] |
| 6.8 ± 0.152 µM | CCOC(=O)COn1c(-c2cccc(C#N)c2)nc(C)c1C(=O)OCC [LY-26g, ethyl 2-(3-cyanophenyl)-1-(2-ethoxy-2-oxoethoxy)-4-methyl-1H-imidazole-5-carboxylate] |
| 6.74 ± 0.326 µM | CCOC(=O)c1c(C)nc(-c2cccc(C#N)c2)n1OC(C)C [LY-26c, ethyl 2-(3-cyanophenyl)-1-isopropoxy-4-methyl-1H-imidazole-5-carboxylate] |
| 6.31 ± 0.399 µM | CCOC(=O)c1c(C)nc(-c2cccc(C#N)c2)n1OCc1ccc(C)cc1 [LY-26s, ethyl 2-(3-cyanophenyl)-4-methyl-1-[(4-methylbenzyl)oxy]-1H-imidazole-5-carboxylate] |
| 6.25 ± 0.21 µM | CCOCCOn1c(-c2cccc(C#N)c2)nc(C)c1C(=O)OCC [LY-26e, ethyl 2-(3-cyanophenyl)-1-(2-ethoxyethoxy)-4-methyl-1H-imidazole-5-carboxylate] |
| 6.196 ± 0.0526 µM | CCOC(=O)c1c(C)nc(-c2cccc(C#N)c2)n1OCc1ccncc1 [LY-26j, ethyl 2-(3-cyanophenyl)-4-methyl-1-(pyridin-4-methoxy)-1H-imidazole-5-carboxylate] |
| 5.93 ± 0.265 µM | CCOC(=O)c1c(C)nc(-c2cccc(C#N)c2)n1OCc1ccccc1 [LY-26k, ethyl 1-(benzyloxy)-2-(3-cyanophenyl)-4-methyl-1H-imidazole-5-carboxylate] |
| 5.88 ± 0.196 µM | CCOC(=O)c1c(C)nc(-c2cccc(C#N)c2)n1OCc1ccccc1F [LY-26l, ethyl 2-(3-cyanophenyl)-1-[(2-fluorobenzyl)oxy]-4-methyl-1H-imidazole-5-carboxylate] |
| 5.88 ± 0.196 µM | CCOC(=O)c1c(C)nc(-c2cccc(C#N)c2)n1OCc1ccc(F)cc1 [LY-26n, ethyl 2-(3-cyanophenyl)-1-[(4-fluorobenzyl)oxy]-4-methyl-1H-imidazole-5-carboxylate] |
| 5.856 ± 0.0165 µM | C=CCOn1c(-c2cccc(C#N)c2)nc(C)c1C(=O)OCC [LY-26d, ethyl 1-(allyloxy)-2-(3-cyanophenyl)-4-methyl-1H-imidazole-5-carboxylate] |

same assay, conditions: rabbit PRP, inducer ADP, absorbance 655 nm; read-out: IC50 (Mean ± SE), ADP-induced platelet aggregation

| SMILES | IC50 |
| --- | --- |
| CCOC(=O)c1c(C)nc(-c2ccc(OCC(C)C)c(C#N)c2)n1O [LY-7a, ethyl 2-(3-cyano-4-isobutyloxy)phenyl-1-hydroxy-4-methyl-1H-imidazole-5-carboxylate] | 16.8 ± 0.874 µM |
